Source: patent US7098231B2, “Viral polymerase inhibitors” (Boehringer Ingelheim International GmbH, priority 2003, dated 2006)

Each molecule was assayed against T1, hepatitis C virus RNA dependent polymerase (NS5B) (Hepatitis C virus genotype 1b, UniProt P26663) (assay: biochemical).
T1 construct: The C-terminal polyprotein cleavage product, NS5B, is the elongation subunit of the HCV replicase
Protocol: Inhibition of NS5B RNA Dependent RNA Polymerase Activity
The compounds of the invention were tested for inhibitory activity against the hepatitis C virus RNA dependent polymerase (NS5B), according to the protocol described in WO 03/010141.

T1 sequence (P26663 2420-3010): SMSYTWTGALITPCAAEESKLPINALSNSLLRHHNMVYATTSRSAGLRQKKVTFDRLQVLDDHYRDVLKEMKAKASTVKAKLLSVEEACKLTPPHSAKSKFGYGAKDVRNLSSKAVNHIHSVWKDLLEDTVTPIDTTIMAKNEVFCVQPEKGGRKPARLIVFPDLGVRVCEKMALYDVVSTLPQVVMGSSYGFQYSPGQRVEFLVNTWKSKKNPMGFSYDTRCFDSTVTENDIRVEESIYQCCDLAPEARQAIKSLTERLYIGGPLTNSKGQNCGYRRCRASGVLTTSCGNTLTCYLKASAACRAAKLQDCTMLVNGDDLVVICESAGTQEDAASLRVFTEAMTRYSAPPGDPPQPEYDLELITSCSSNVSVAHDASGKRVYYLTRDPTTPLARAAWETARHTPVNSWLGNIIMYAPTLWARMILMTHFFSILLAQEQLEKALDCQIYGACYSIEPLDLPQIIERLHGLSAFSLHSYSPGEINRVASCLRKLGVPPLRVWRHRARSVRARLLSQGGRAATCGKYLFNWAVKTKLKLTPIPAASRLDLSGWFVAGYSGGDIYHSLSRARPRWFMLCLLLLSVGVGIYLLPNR

| SMILES | IC50 [nM] |
| --- | --- |
| COc1c(C(=O)NS(C)(=O)=O)ccc2c(C3CCCC3)c(-c3ccoc3)n(C)c12 [compound 201] | < 1000 |
| Cn1c(-c2ccoc2)c(C2CCCCC2)c2cc(C(=O)NS(=O)(=O)c3ccccc3)ccc21 [compound 204] | 1000 to 20000 |
| COc1c(C(=O)NS(=O)(=O)c2ccccc2)ccc2c(C3CCCC3)c(-c3ccoc3)n(C)c12 [compound 202] | < 1000 |
| Cn1c(-c2ccoc2)c(C2CCCCC2)c2cc(C(=O)NS(C)(=O)=O)ccc21 [compound 203] | 1000 to 20000 |
